US20090280069A1, “PROGUANIL TO TREAT SKIN/MUCOSAL DISEASES” (Tolmar, Inc., priority 2008, published 2009)
Read-outs that look alike come from different tables or passages of the source.

What was measured:
S. pyogenes ATCC 19615 = assay: time kill assay, S. pyogenes (Group A); format: cell-based, Streptococcus pyogenes
Method: Streptococcus pyogenes (Group A) infections can lead to many skin disease syndromes. Impetigo, ecthyma, erysipelas, and cellulitis are all diseases caused by an infection of S. pyogenes. A microbiological study used a time kill assay with S. pyogenes ATCC 19615 as an indicator of the antibacterial activity of proguanil. […] A broth only control as well as a solvent 10% DGME control were added to the vials so that the total test volume was 15 ml. One hundred μl of a freshly grown suspension of the S. pyogenes was then added at time zero so that the initial bacterial suspension was between 10^7 and 10^8 CFU/ml. All test and control suspensions were then incubated under aerobic conditions at 35° C. Aliquots of the test and control suspensions were removed at 24, 48, and 72 hours and plated onto tryptic soy agar in triplicate using a spiral plater. These plates were incubated aerobically at 35° C. for 1-3 days. Surviving colonies were then counted and the CFU/ml of test and control suspensions calculated and graphed. The effects of proguanil on the S. pyogenes were observed.

[1] = tested on: Streptococcus dysgalactiae subsp. equisimilis ATCC 6644; assay: time kill assay, S. dysgalactiae (Group G); format: cell-based
Method: Streptococcus dysgalactiae (Group G) infections can lead to skin diseases such as erysipelas and cellulitis. A time kill assay was used to test the effects of varying concentrations of proguanil on a culture of Streptococcus dysgalactiae subsp. equisimilis ATCC 6644. An inoculum of S. dysgalactiae was prepared and inoculated in vials containing Muller Hinton II broth and proguanil concentrations of 160, 80, 16, 8, and 1.6 μg/ml. A growth control using phosphate buffered saline A (PBSA) plus Mueller Hinton II broth was used in place of the drug because it has no antimicrobial effect. DGME was the solvent used to dissolve the proguanil, accordingly, 10% DGME was used as the solvent control. These inoculated broth solutions were then allowed to incubate for a period of 72 hours. Samples were taken at 0, 4, 24, 48 and 72 hours and spiral plated so the CFU/ml could be calculated. In the experiments, the effects of proguanil on the S. dysgalactiae were observed.

[2] = tested on: Trichomonas vaginalis ATCC 30001; assay: viability over time assay, T. vaginalis; format: cell-based; conditions: for viability at 10 µg/mL / viability at 20 µg/mL / viability at 40 µg/mL / viability at 80 µg/mL / viability at 160 µg/mL / viability at 320 µg/mL: Trichomonas vaginalis, ATCC30001
Method: Trichomonas vaginalis infections in females usually involves vaginal discharge and vulvovaginal irritation but is usually asymptomatic in males. A viability over time assay was used to test the effects of varying concentrations of proguanil on a culture of the protozoa Trichomonas vaginalis ATCC 30001. A suspension of T. vaginalis was prepared and inoculated into microtiter plate wells containing supplemented Trichomonas Medium and proguanil concentrations of 320, 160, 80, 40, 20, and 10 μg/ml. A growth control using pyrogen-free water plus supplemented Trichomonas medium was used in place of the drug because it has no antiprotozoal effect. DGME was the solvent used to dissolve the proguanil, accordingly, a small amount of 10% DGME was used as the solvent control in the medium. These inoculated broth solutions were then allowed to incubate for a period of 6 hours. Samples were taken at 1, 3, and 6 hours and observed using a phase contrast microscope. Multiple microscope fields were counted and the number of viable and nonviable T. vaginalis recorded. In the experiment, the effects of proguanil on the T. vaginalis were observed as loss of flagella movement, loss of undulating membrane movement, and loss of cell refractivity.

[3] = 160 μg/ml, T=24, 48 and 72 hours

CC(C)NC(=N)NC(=N)Nc1ccc(Cl)cc1 [Proguanil, N-(4-Chlorophenyl)-N′-(1-methylethyl)imidodicarbonimidic diamide]
effect on the bacteria (S. pyogenes ATCC 19615; 1.6 μg/ml): roughly followed the trend of the Mueller Hinton II broth control
effect on the bacteria (S. pyogenes ATCC 19615; 8 μg/ml and 16 μg/ml, compared to Mueller Hinton II control): may be slightly inhibitory
effect on the bacteria (S. pyogenes ATCC 19615; 80 μg/ml, lesser effect than 160 and 100 μg/ml): good growth inhibition
effect on the bacteria (S. pyogenes ATCC 19615; 100 μg/ml, over 72 hours, single assay): substantial effect
CFU/ml (S. pyogenes ATCC 19615; [3]): 0 CFU/ml
effect on the bacteria (S. pyogenes ATCC 19615; 160 μg/ml, lowest CFU/ml at all time points): greatest effect
Relative Sensitivity (Compared to Other Strains Tested) (S. pyogenes ATCC 19615; Streptococcus pyrogenes (Group A) ATCC 19615): Sensitive
Approximate Inhibitory Level (S. pyogenes ATCC 19615; Streptococcus pyrogenes (Group A) ATCC 19615, level at which partial or total inhibition of growth is observed): 80 to 160 µg/mL
effect on CFU/ml ([1]; 80 μg/ml, time zero to 72 hours): only a slight increase in CFU/ml
effect on the bacteria ([1]; 160 μg/ml): strong inhibition and killing effect
CFU/ml [1, 3]: 0 CFU/ml
Relative Sensitivity (Compared to Other Strains Tested) ([1]; Streptococcus dysgalactiae (Group G) ATCC 6644): Sensitive
Approximate Inhibitory Level ([1]; Streptococcus dysgalactiae (Group G) ATCC 6644, level at which partial or total inhibition of growth is observed): 80 to 160 µg/mL
effect on CFU/ml ([1]; all other concentrations (16, 8, 1.6 μg/ml)): very similar and near the CFU/ml of the Mueller Hinton II broth control
Nonviable ([2]; 10 ug/ml, 1 Hour): 24
Viable ([2]; 10 ug/ml, 1 Hour): 26
Nonviable ([2]; 10 ug/ml, 3 Hour): 25
Viable ([2]; 10 ug/ml, 3 Hour): 25
Nonviable ([2]; 10 ug/ml, 6 Hour): 25
Viable ([2]; 10 ug/ml, 6 Hour): 25
Nonviable ([2]; 20 ug/ml, 1 Hour): 19
Viable ([2]; 20 ug/ml, 1 Hour): 31
Nonviable ([2]; 20 ug/ml, 3 Hour): 28
Viable ([2]; 20 ug/ml, 3 Hour): 22
Nonviable ([2]; 20 ug/ml, 6 Hour): 29
Viable ([2]; 20 ug/ml, 6 Hour): 21
Nonviable ([2]; 40 ug/ml, 1 Hour): 22
Viable ([2]; 40 ug/ml, 1 Hour): 28
Nonviable ([2]; 40 ug/ml, 3 Hour): 25
Viable ([2]; 40 ug/ml, 3 Hour): 25
Nonviable ([2]; 40 ug/ml, 6 Hour): 27
Viable ([2]; 40 ug/ml, 6 Hour): 26
Nonviable ([2]; 80 ug/ml, 1 Hour): 28
Viable ([2]; 80 ug/ml, 1 Hour): 22
Nonviable ([2]; 80 ug/ml, 3 Hour): 32
Viable ([2]; 80 ug/ml, 3 Hour): 18
Nonviable ([2]; 80 ug/ml, 6 Hour): 34
Viable ([2]; 80 ug/ml, 6 Hour): 8
effect on T. vaginalis viability ([2]; 80 μg/ml, at 3 and 6 hours): next greatest effect
Nonviable ([2]; 160 ug/ml, 1 Hour): 30
Viable ([2]; 160 ug/ml, 1 Hour): 20
Nonviable ([2]; 160 ug/ml, 3 Hour): 27
Viable ([2]; 160 ug/ml, 3 Hour): 24
Nonviable ([2]; 160 ug/ml, 6 Hour): 43
Viable ([2]; 160 ug/ml, 6 Hour): 9
effect on T. vaginalis ([2]; 160 μg/ml, at 6 hours): strong inhibition and killing effect
Nonviable ([2]; 320 ug/ml, 1 Hour): 32
Viable ([2]; 320 ug/ml, 1 Hour): 18
Nonviable ([2]; 320 ug/ml, 3 Hour): 40
Viable ([2]; 320 ug/ml, 3 Hour): 13
Nonviable ([2]; 320 ug/ml, 6 Hour): 14
Viable ([2]; 320 ug/ml, 6 Hour): 0
effect on T. vaginalis ([2]; 320 μg/ml, at 1 hour): early inhibition and killing effect
surviving T. vaginalis ([2]; 320 μg/ml, at 6 hours): no surviving T. vaginalis could be observed
Relative Sensitivity (Compared to Other Strains Tested) ([2]; Trichomonas vaginalis (parasitic protozoan) ATCC 30001): Very Sensitive
Approximate Inhibitory Level ([2]; Trichomonas vaginalis (parasitic protozoan) ATCC 30001, level at which partial or total inhibition of growth is observed): 80 µg/mL
viability at 10 µg/mL ([2]; 10 ug/ml, 1 Hour, read-out: PerCent Viable): 52%
viability at 10 µg/mL ([2]; 10 ug/ml, 1 Hour, read-out: Percent Viable of Growth Control): 118%
viability at 10 µg/mL ([2]; 10 ug/ml, 3 Hour, read-out: PerCent Viable): 50%
viability at 10 µg/mL ([2]; 10 ug/ml, 3 Hour, read-out: Percent Viable of Growth Control): 96.2%
viability at 10 µg/mL ([2]; 10 ug/ml, 6 Hour, read-out: PerCent Viable): 50%
viability at 10 µg/mL ([2]; 10 ug/ml, 6 Hour, read-out: Percent Viable of Growth Control): 86.2%
viability at 20 µg/mL ([2]; 20 ug/ml, 1 Hour, read-out: PerCent Viable): 62%
viability at 20 µg/mL ([2]; 20 ug/ml, 1 Hour, read-out: Percent Viable of Growth Control): 140%
viability at 20 µg/mL ([2]; 20 ug/ml, 3 Hour, read-out: PerCent Viable): 44%
viability at 20 µg/mL ([2]; 20 ug/ml, 3 Hour, read-out: Percent Viable of Growth Control): 84.6%
viability at 20 µg/mL ([2]; 20 ug/ml, 6 Hour, read-out: PerCent Viable): 42%
viability at 20 µg/mL ([2]; 20 ug/ml, 6 Hour, read-out: Percent Viable of Growth Control): 72.4%
viability at 40 µg/mL ([2]; 40 ug/ml, 1 Hour, read-out: PerCent Viable): 56%
viability at 40 µg/mL ([2]; 40 ug/ml, 1 Hour, read-out: Percent Viable of Growth Control): 126%
viability at 40 µg/mL ([2]; 40 ug/ml, 3 Hour, read-out: PerCent Viable): 50%
viability at 40 µg/mL ([2]; 40 ug/ml, 3 Hour, read-out: Percent Viable of Growth Control): 96.2%
viability at 40 µg/mL ([2]; 40 ug/ml, 6 Hour, read-out: PerCent Viable): 49.1%
viability at 40 µg/mL ([2]; 40 ug/ml, 6 Hour, read-out: Percent Viable of Growth Control): 84.6%
viability at 80 µg/mL ([2]; 80 ug/ml, 1 Hour, read-out: PerCent Viable): 44%
viability at 80 µg/mL ([2]; 80 ug/ml, 1 Hour, read-out: Percent Viable of Growth Control): 99.4%
viability at 80 µg/mL ([2]; 80 ug/ml, 3 Hour, read-out: PerCent Viable): 36%
viability at 80 µg/mL ([2]; 80 ug/ml, 3 Hour, read-out: Percent Viable of Growth Control): 69.2%
viability at 80 µg/mL ([2]; 80 ug/ml, 6 Hour, read-out: PerCent Viable): 19%
viability at 80 µg/mL ([2]; 80 ug/ml, 6 Hour, read-out: Percent Viable of Growth Control): 32.8%
viability at 160 µg/mL ([2]; 160 ug/ml, 1 Hour, read-out: PerCent Viable): 40%
viability at 160 µg/mL ([2]; 160 ug/ml, 1 Hour, read-out: Percent Viable of Growth Control): 90.4%
viability at 160 µg/mL ([2]; 160 ug/ml, 3 Hour, read-out: PerCent Viable): 47.1%
viability at 160 µg/mL ([2]; 160 ug/ml, 3 Hour, read-out: Percent Viable of Growth Control): 90.5%
viability at 160 µg/mL ([2]; 160 ug/ml, 6 Hour, read-out: PerCent Viable): 17.3%
viability at 160 µg/mL ([2]; 160 ug/ml, 6 Hour, read-out: Percent Viable of Growth Control): 29.8%
viability at 320 µg/mL ([2]; 320 ug/ml, 1 Hour, read-out: PerCent Viable): 36%
viability at 320 µg/mL ([2]; 320 ug/ml, 1 Hour, read-out: Percent Viable of Growth Control): 81.3%
viability at 320 µg/mL ([2]; 320 ug/ml, 3 Hour, read-out: PerCent Viable): 24.5%
viability at 320 µg/mL ([2]; 320 ug/ml, 3 Hour, read-out: Percent Viable of Growth Control): 47.2%
viability at 320 µg/mL ([2]; 320 ug/ml, 6 Hour, read-out: PerCent Viable): 0%
viability at 320 µg/mL ([2]; 320 ug/ml, 6 Hour, read-out: Percent Viable of Growth Control): 0%
